Measurements published in PubChem BioAssay (NCI).
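Assay format: 96-well plates, 48-hour exposure. TGI denotes the concentration required for complete inhibition of growth.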

Key:
Experiment in all cases: NCI-60 cell line screen, 48 h
MDA-MB-435 = system: MDA-MB-435
LOX IMVI melanoma = system: LOX IMVI melanoma
NCI-H23 lung = system: NCI-H23 lung
HT29 colon = system: HT29 colon
SK-MEL-2 melanoma = system: SK-MEL-2 melanoma
EKVX NSCLC = system: EKVX NSCLC
RXF 393 renal = system: RXF 393 renal
HCT-15 colon = system: HCT-15 colon
UO-31 renal = system: UO-31 renal
HCT-116 colon = system: HCT-116 colon
NCI/ADR-RES ovarian = system: NCI/ADR-RES ovarian
SR leukemia = system: SR leukemia
HL-60(TB) leukemia = system: HL-60(TB) leukemia
SK-MEL-28 melanoma = system: SK-MEL-28 melanoma
IGROV1 ovarian = system: IGROV1 ovarian
MOLT-4 leukemia = system: MOLT-4 leukemia
786-0 renal = system: 786-0 renal
HOP-92 NSCLC = system: HOP-92 NSCLC
SK-OV-3 ovarian = system: SK-OV-3 ovarian

SMILES: CC(=O)OCC1OC(SC2=N/C(=C\c3cc4c(=O)c5ccccc5sc4s3)C(=O)N2c2ccccc2)C(OC(C)=O)C(OC(C)=O)C1OC(C)=O (centres undefined)
- TGI (MDA-MB-435): > 100 µM
- TGI (LOX IMVI melanoma): > 100 µM
- TGI (NCI-H23 lung): > 100 µM
- TGI (HT29 colon): > 100 µM
- TGI (SK-MEL-2 melanoma): > 100 µM
- TGI (EKVX NSCLC): > 100 µM
- TGI (RXF 393 renal): > 100 µM
- TGI (HCT-15 colon): > 100 µM
- TGI (UO-31 renal): > 100 µM
- TGI (HCT-116 colon): > 100 µM
- TGI (NCI/ADR-RES ovarian): > 100 µM
- TGI (SR leukemia): > 100 µM
- TGI (HL-60(TB) leukemia): 53.3 µM
- TGI (SK-MEL-28 melanoma): > 100 µM
- TGI (IGROV1 ovarian): > 100 µM
- TGI (MOLT-4 leukemia): 54.4 µM
- TGI (786-0 renal): > 100 µM

SMILES: COc1cccc(-c2c(C#N)c(N)nc3c2CCS(=O)(=O)c2ccc(C)cc2-3)c1
- TGI (MDA-MB-435): > 100 µM
- TGI (LOX IMVI melanoma): > 100 µM
- TGI (NCI-H23 lung): > 100 µM
- TGI (HT29 colon): > 100 µM
- TGI (SK-MEL-2 melanoma): > 100 µM
- TGI (HOP-92 NSCLC): > 100 µM
- TGI (HCT-15 colon): > 100 µM
- TGI (UO-31 renal): > 100 µM
- TGI (HCT-116 colon): > 100 µM
- TGI (NCI/ADR-RES ovarian): > 100 µM
- TGI (SR leukemia): > 100 µM
- TGI (HL-60(TB) leukemia): > 100 µM
- TGI (SK-MEL-28 melanoma): > 100 µM
- TGI (IGROV1 ovarian): > 100 µM
- TGI (786-0 renal): > 100 µM

SMILES: NC1CC(=O)c2sc(I)cc21 (centres undefined)
- TGI (MDA-MB-435): > 100 µM
- TGI (HT29 colon): > 100 µM
- TGI (SK-MEL-2 melanoma): > 100 µM
- TGI (EKVX NSCLC): > 100 µM
- TGI (SK-OV-3 ovarian): > 100 µM
- TGI (RXF 393 renal): > 100 µM
- TGI (HCT-15 colon): > 100 µM
- TGI (UO-31 renal): > 100 µM
- TGI (HCT-116 colon): > 100 µM
- TGI (NCI/ADR-RES ovarian): > 100 µM
- TGI (SR leukemia): > 100 µM
- TGI (HL-60(TB) leukemia): 78.7 µM
- TGI (SK-MEL-28 melanoma): > 100 µM
- TGI (IGROV1 ovarian): > 100 µM
- TGI (MOLT-4 leukemia): > 100 µM
- TGI (786-0 renal): > 100 µM

SMILES: N=c1oc2c(Cl)cc(Cl)cc2cc1C(=O)Nc1cccc2ccccc12
- TGI (MDA-MB-435): > 100 µM
- TGI (LOX IMVI melanoma): > 24 µM
- TGI (NCI-H23 lung): > 52.6 µM
- TGI (HT29 colon): > 100 µM
- TGI (EKVX NSCLC): > 74.3 µM
- TGI (SK-OV-3 ovarian): > 77.6 µM
- TGI (RXF 393 renal): 76.8 µM
- TGI (HOP-92 NSCLC): 97.7 µM
- TGI (HCT-15 colon): > 100 µM
- TGI (UO-31 renal): > 40.9 µM
- TGI (HCT-116 colon): 40.6 µM
- TGI (NCI/ADR-RES ovarian): 28.2 µM
- TGI (SR leukemia): > 21.1 µM
- TGI (HL-60(TB) leukemia): > 100 µM
- TGI (SK-MEL-28 melanoma): > 100 µM
- TGI (IGROV1 ovarian): 40.6 µM
- TGI (MOLT-4 leukemia): > 37.5 µM
- TGI (786-0 renal): 12.8 µM

SMILES: COCCN(C(C)=O)C1CCC2(SCCS2)c2[nH]c3ccccc3c21 (centres undefined)
- TGI (MDA-MB-435): > 100 µM
- TGI (LOX IMVI melanoma): > 100 µM
- TGI (NCI-H23 lung): > 100 µM
- TGI (HT29 colon): > 100 µM
- TGI (EKVX NSCLC): > 100 µM
- TGI (RXF 393 renal): > 100 µM
- TGI (HOP-92 NSCLC): > 100 µM
- TGI (HCT-15 colon): > 100 µM
- TGI (HCT-116 colon): > 100 µM
- TGI (NCI/ADR-RES ovarian): > 100 µM
- TGI (SR leukemia): > 100 µM
- TGI (HL-60(TB) leukemia): > 100 µM
- TGI (SK-MEL-28 melanoma): > 100 µM
- TGI (IGROV1 ovarian): > 100 µM
- TGI (MOLT-4 leukemia): > 100 µM
- TGI (786-0 renal): > 100 µM

SMILES: O=C(c1cccc2ccccc12)C1(Br)S(=O)(=O)OCCOS1(=O)=O
- TGI (MDA-MB-435): > 100 µM
- TGI (LOX IMVI melanoma): > 100 µM
- TGI (NCI-H23 lung): > 100 µM
- TGI (HT29 colon): > 100 µM
- TGI (SK-MEL-2 melanoma): > 100 µM
- TGI (EKVX NSCLC): > 100 µM
- TGI (HCT-15 colon): > 100 µM
- TGI (UO-31 renal): > 100 µM
- TGI (HCT-116 colon): > 100 µM
- TGI (NCI/ADR-RES ovarian): > 100 µM
- TGI (SR leukemia): > 100 µM
- TGI (HL-60(TB) leukemia): > 100 µM
- TGI (SK-MEL-28 melanoma): > 100 µM
- TGI (MOLT-4 leukemia): > 100 µM
- TGI (786-0 renal): > 100 µM

SMILES: c1ccc([P+](Cc2ccc(C[P+](c3ccccc3)(c3ccccc3)c3ccccc3)cc2)(c2ccccc2)c2ccccc2)cc1
- TGI (MDA-MB-435): > 100 µM
- TGI (LOX IMVI melanoma): 50 µM
- TGI (NCI-H23 lung): > 100 µM
- TGI (HT29 colon): > 100 µM
- TGI (EKVX NSCLC): > 100 µM
- TGI (SK-OV-3 ovarian): > 100 µM
- TGI (RXF 393 renal): > 100 µM
- TGI (HOP-92 NSCLC): 93.4 µM
- TGI (HCT-15 colon): > 100 µM
- TGI (UO-31 renal): > 100 µM
- TGI (HCT-116 colon): > 100 µM
- TGI (NCI/ADR-RES ovarian): > 100 µM
- TGI (SR leukemia): > 100 µM
- TGI (HL-60(TB) leukemia): > 100 µM
- TGI (SK-MEL-28 melanoma): > 100 µM
- TGI (IGROV1 ovarian): > 100 µM
- TGI (MOLT-4 leukemia): > 100 µM
- TGI (786-0 renal): > 100 µM

SMILES: S=c1sc2c(s1)SCCCCSCCCCSc1sc(=S)sc1SCCCCSCCCCS2
- TGI (MDA-MB-435): > 100 µM
- TGI (LOX IMVI melanoma): > 100 µM
- TGI (NCI-H23 lung): > 100 µM
- TGI (HT29 colon): > 100 µM
- TGI (SK-MEL-2 melanoma): > 100 µM
- TGI (EKVX NSCLC): > 100 µM
- TGI (SK-OV-3 ovarian): > 100 µM
- TGI (HCT-15 colon): > 100 µM
- TGI (UO-31 renal): > 100 µM
- TGI (HCT-116 colon): > 100 µM
- TGI (NCI/ADR-RES ovarian): > 100 µM
- TGI (SR leukemia): > 100 µM
- TGI (HL-60(TB) leukemia): > 100 µM
- TGI (SK-MEL-28 melanoma): > 100 µM
- TGI (IGROV1 ovarian): > 100 µM
- TGI (MOLT-4 leukemia): > 100 µM
- TGI (786-0 renal): > 100 µM

SMILES: CC1CNc2ccccc2N=C1NN (centres undefined)
- TGI (MDA-MB-435): > 100 µM
- TGI (LOX IMVI melanoma): > 100 µM
- TGI (NCI-H23 lung): > 100 µM
- TGI (HT29 colon): > 100 µM
- TGI (SK-MEL-2 melanoma): > 100 µM
- TGI (EKVX NSCLC): > 100 µM
- TGI (SK-OV-3 ovarian): > 100 µM
- TGI (RXF 393 renal): > 100 µM
- TGI (HCT-15 colon): > 100 µM
- TGI (UO-31 renal): > 100 µM
- TGI (HCT-116 colon): > 100 µM
- TGI (NCI/ADR-RES ovarian): > 100 µM
- TGI (SR leukemia): > 100 µM
- TGI (HL-60(TB) leukemia): > 24.8 µM
- TGI (SK-MEL-28 melanoma): > 100 µM
- TGI (IGROV1 ovarian): > 100 µM
- TGI (786-0 renal): > 100 µM

SMILES: C=CCOc1ccc(/C(N=Nc2ccc(Cl)cc2)=N/NC(=O)c2ccccc2)cc1OC
- TGI (MDA-MB-435): > 100 µM
- TGI (LOX IMVI melanoma): > 100 µM
- TGI (NCI-H23 lung): > 100 µM
- TGI (HT29 colon): > 100 µM
- TGI (SK-MEL-2 melanoma): > 100 µM
- TGI (EKVX NSCLC): > 100 µM
- TGI (HOP-92 NSCLC): 91.6 µM
- TGI (HCT-15 colon): > 100 µM
- TGI (UO-31 renal): > 100 µM
- TGI (HCT-116 colon): > 100 µM
- TGI (NCI/ADR-RES ovarian): > 100 µM
- TGI (SR leukemia): > 100 µM
- TGI (HL-60(TB) leukemia): > 100 µM
- TGI (SK-MEL-28 melanoma): > 100 µM
- TGI (IGROV1 ovarian): > 100 µM
- TGI (MOLT-4 leukemia): > 100 µM
- TGI (786-0 renal): > 100 µM

SMILES: CC(=O)CCCCC(=O)Nc1ccc(CC(NC(=O)OC(C)(C)C)C(=O)NCC(=O)OCc2ccccc2)cc1 (centres undefined)
- TGI (MDA-MB-435): 36 µM
- TGI (LOX IMVI melanoma): 29.3 µM
- TGI (NCI-H23 lung): 76.6 µM
- TGI (HT29 colon): 36.7 µM
- TGI (EKVX NSCLC): > 100 µM
- TGI (SK-OV-3 ovarian): 52.7 µM
- TGI (RXF 393 renal): 54.5 µM
- TGI (HOP-92 NSCLC): 68 µM
- TGI (HCT-15 colon): > 100 µM
- TGI (UO-31 renal): 39.2 µM
- TGI (HCT-116 colon): 37.8 µM
- TGI (NCI/ADR-RES ovarian): > 100 µM
- TGI (SR leukemia): 56.9 µM
- TGI (HL-60(TB) leukemia): 43.6 µM
- TGI (SK-MEL-28 melanoma): 35.4 µM
- TGI (IGROV1 ovarian): > 100 µM
- TGI (MOLT-4 leukemia): 66.4 µM
- TGI (786-0 renal): 49 µM
